Values quoted from earlier work as cited in US6838238B1, “Morphatides: novel shape and structure libraries” (Invitrogen Corporation, priority 1996, dated 2005).

Conditions: ionizes by hydration to yield the tetrahedral phenylboronate anion

In the case of OB(O)c1ccccc1 [Phenylboronic acid], the pKa is given as 8.86.
